Source: patent publication US9809560B2, “Ligands and methods for labeling biomolecules in vivo” (Albert Einstein College of Medicine, Inc., priority 2010, dated 2017)
Structures can show the parent of a compound that is named as a salt.

Assays:
[1] = Fluorogenic kinetic assay of CuAAC of 3-azido-7-hydroxy-coumarin and propargyl alcohol; settings: TBTA-Cu(I)-catalyzed reaction, same fluorogenic assay
Method: FIG. 1A-1C. Copper(I)-catalyzed azide-alkyne cycloaddition (CuAAC) is accelerated by Cu(I)-stabilizing ligands. (A) CuAAC of azides and terminal alkynes to form 1,4-disubstituted 1,2,3-triazoles. (B) Structures of CuAAC-accelerating ligands. (C) Conversion-time profiles of CuAAC in the presence/absence of accelerating ligands. Reaction conditions: propargyl alcohol (50 μM), 3-azido-7-hydroxy-coumarin (100 μM), CuSO4 (75 μM), 0.1 M potassium phosphate buffer (pH 7.0)/DMSO 95:5, sodium ascorbate ([…]), rt. Error bars represent the standard deviation of three replicate experiments.
Protocol for Kinetic Measurement of CuAAC of 3-azido-7-hydroxy-coumarin and Propargyl Alcohol […]
Procedure for 200 μL reactions: In a 96-well fluorescence plate, add the reagents in the following order: (1) 40 μL of 500 mM phosphate buffer pH 7.0; (2) 1.0 μL 10 mM propargyl alcohol; (3) 10 μL of DMSO; (4) 6 μL of premixed CuSO4 and ligand ([Cu]=2.5 mM); (5) 1.0 μL 20 mM coumarin-N3; (6) 20 μL of 25 mM sodium ascorbate; (7) Read fluorescence (λex=404 nm, λem=477 nm, RFU) on the Synergy plate reader.

PD1-Fc = experiment: Labeling of PD1-Fc via CuAAC and Cu-free click chemistry, detection by Western blot; settings: 1 h; for Western blot labeling signal: CuAAC with biotin-alkyne 100 μM or BARAC-biotin 100 μM
Method: FIG. 13. Comparison of the efficiency of the CuAAC and BARAC-mediated copper-free click chemistry in labeling recombinant proteins and crude cell lysates. Western blot analysis of PD1-Fc isolated from HEK cells treated with Ac4ManNAz (top panel). Total protein loading was confirmed by Coomassie staining (bottom panel). Reaction conditions for CuAAC: biotin-alkyne (100 μM) in the presence of sodium ascorbate (2.5 mM), CuSO4 (250 μM) premixed with various tristriazolylamino ligands (500 μM); copper-free click reaction: BARAC-biotin (100 μM). Reactions were allowed to proceed for 1 h at room temperature, and analyzed by Western blot using an HRP-conjugated anti-biotin antibody. Structural formulae of tris(triazolylmethyl)amine-based ligands and BARAC-biotin. BTTAA=2-[4-({bis[(1-tert-butyl-1H-1,2,3-triazol-4-yl)methyl]amino}methyl)-1H-1,2,3-triazol-1-yl]acetic acid, BTTES=2-[4-({bis[(1-tert-butyl-1H-1,2,3-triazol-4-yl)methyl]amino}methyl)-1H-1,2,3-triazol-1-yl]ethyl hydrogen sulfate, TBTA=tris[(1-benzyl-1H-1,2,3-triazol-4-yl)methyl]amine, THPTA=tris[(1-hydroxypropyl-1H-1,2,3-triazol-4-yl)methyl]amine, BARAC=biarylazacyclooctynone.
To evaluate the activity of the new ligand-Cu(I) complex and compare the click reactions in the context of biomolecular labeling experiments, the first system used was a recombinant glycoprotein—Programmed Death 1-Immunoglobulin G Fc fusion (PD1-Fc). When expressed in mammalian cells, the Fc region of the recombinant protein is glycosylated and terminated with sialic acids. HEK-293 cells stably expressing PD1-Fc fusion protein were cultured in medium containing 50 μM sialic acid metabolic precursor—peracetylated N-azidoacetylmannosamine (Ac4ManNAz) for 4 days. The target protein was then isolated using protein G (a genetically engineered protein that contains Fc binding domains of protein G) agarose. To probe for the presence of the sialic acid-associated azide, the protein was reacted with biotin-alkyne via the CuAAC or BARAC-biotin via the copper-free click chemistry. For the CuAAC, 100 μM of biotin-alkyne was used as the coupling partner and the ratio of biotin-alkyne, ligand, CuSO4 and sodium ascorbate was held at 1:5:2.5:25, a labeling condition optimized in the lab. The copper-free click chemistry was performed with 100 μM of BARAC-biotin. The reactions were allowed to proceed for one hour and the labeled protein was analyzed by SDS-PAGE and Western blot. As quantified by ImageJ, reactions mediated by BTTES-Cu(I) and BTTAA-Cu(I) provided 2.6- and 2.1-fold stronger signal than the signal afforded by THPTA-Cu(I) for the fusion protein isolated from Ac4ManNAz-treated culture. […]

[2] = cited from earlier work
zebrafish embryos = settings: 1 mM CuSO4, 1.5 mM sodium ascorbate, 0.1 mM TBTA ligand; cited from earlier work
Jurkat cells = experiment: Live cell labeling of Ac4ManNAl-treated cells, BTTPS-Cu(I) vs BTTP-Cu(I), Alexa Fluor 488-streptavidin and 7-AAD flow cytometry; assay type: cell-based, human; settings: for mean fluorescence intensity: 15 min
Method: FIG. 12A-12D. Comparison of the efficiency of the BTTPS-Cu(I) and BTTP-Cu(I)-mediated azide-alkyne cycloaddition in labeling sialylated glycoconjugates in live cells. Jurkat cells were cultured in the presence or absence of Ac4ManNAl for 3 days. Cells were then reacted with biotin azide (50 μM) in the presence of sodium ascorbate (2.5 mM), and CuSO4 premixed with ligands BTTPS or BTTP ([ligand]:[CuSO4]=6:1). Reactions were quenched with BCS, stained with Alexa Fluor 488-streptavidin, 7-AAD, and analyzed by flow cytometry. (A) Mean fluorescence intensity (MFI) of cells treated with the BTTPS-Cu(I) or BTTP-Cu(I) catalyst ([CuSO4]=75 μM) in the course of 5-15 min reactions. (B) Percentage of viable cells without cell-membrane damage post the click reactions with the BTTPS-Cu(I) or BTTP-Cu(I) catalyst ([CuSO4]=75 μM) in the course of 5-15 min reactions. (C) MFI of cells treated with the BTTPS-Cu(I) catalyst ([CuSO4]=20-75 μM) in a one-minute reaction. (D) Percentage of viable cells without cell-membrane damage post the click reactions with the BTTPS-Cu(I) catalyst ([Cu]=20-75 μM) in a one-minute reaction.
In the ligand design, sulfation of BTTP is used to generate a negatively charged ligand, BTTPS (3-(4-((bis((1-tert-butyl-1H-1,2,3-triazol-4-yl)methyl)amino)methyl)-1H-1,2,3-triazol-1-yl)propyl hydrogen sulfate), (FIG. 14) to minimize the cellular internalization of the coordinated copper. To evaluate if sulfation confers the ligand the desired property, BTTPS-Cu(I) and BTTP-Cu(I) were compared in live cell labeling experiments. Jurkat cells were metabolically labeled with Ac4ManNAl. The treated cells were reacted with biotin-azide (50 μM) in the presence of BTTPS-Cu(I) or BTTP-Cu(I) for 5-15 min at room temperature (catalyst formulation: [ligand]:[CuSO4]=6:1, [CuSO4]=75 μM). After the reaction was quenched with BCS, the biotinylated cells were incubated with Alexa Fluor 488-streptavidin. The cells were then stained with 7-aminoactinomycin D (7-AAD), a fluorescent molecule with strong affinity for double-stranded DNA, and analyzed by flow cytometry. […] Therefore, healthy and damaged cells can be easily distinguished. […] Greater than 60% cells were still undamaged after treatment with BTTPS-Cu(I) (7-AAD negative), whereas only 26% cells treated with BTTP-Cu(I) reminded normal (FIG. 12b). Furthermore, the labeling temperature also plays a significant role in modulating the Cu-associated toxicity. When both Jurkat cells and the labeling reagents were pre-cooled to 4° C. before triggering the CuAAC, greater than 85% cells remained viable after a 15 min BTTPS-Cu(I)-mediated reaction with high labeling efficiency achieved (mean fluorescence intensity 2200, for reactions performed at 4° C.-room temperature vs 3679, for reactions performed at room temperature).

c1ccc(Cn2cc(CN(Cc3cn(Cc4ccccc4)nn3)Cc3cn(Cc4ccccc4)nn3)nn2)cc1 [TBTA, tris[(1-benzyl-1H-1,2,3-triazol-4-yl)methyl]amine]
cycloaddition product yield at leveling off [1]: < 20% | Western blot labeling signal (PD1-Fc): no detectable signal | water solubility [2]: very poor water solubility | time by which all embryos were dead (zebrafish embryos): ≤ 15 min

biarylazacyclooctynone [BARAC]
Western blot labeling signal (PD1-Fc): no detectable signal

CC(C)(C)n1cc(CN(Cc2cn(CC(=O)O)nn2)Cc2cn(C(C)(C)C)nn2)nn1 [BTTAA, 2-(4-((bis((1-tert-butyl-1H-1,2,3-triazol-4-yl)methyl)amino)methyl)-1H-1,2,3-triazol-1-yl)acetic acid]
signal relative to THPTA-Cu(I) (Western blot, ImageJ) (PD1-Fc; biotin-alkyne 100 μM, ligand 500 μM, CuSO4 250 μM, sodium ascorbate 2.5 mM): 2.1 fold

tris[(1-hydroxypropyl-1H-1,2,3-triazol-4-yl)methyl]amine [THPTA]
Western blot labeling signal (PD1-Fc): significantly weaker labeling

CC(C)(C)n1cc(CN(Cc2cn(CCCOS(=O)(=O)O)nn2)Cc2cn(C(C)(C)C)nn2)nn1 [BTTPS, 3-(4-((bis((1-tert-butyl-1H-1,2,3-triazol-4-yl)methyl)amino)methyl)-1H-1,2,3-triazol-1-yl)propyl hydrogen sulfate]
mean fluorescence intensity (Jurkat cells; reactions performed at 4° C.-room temperature): 2200 | mean fluorescence intensity (Jurkat cells; reactions performed at room temperature): 3679 | cells undamaged (7-AAD negative) (Jurkat cells; 15 min reaction at room temperature, [ligand]:[CuSO4]=6:1, [CuSO4]=75 μM): Greater than 60% | cells remaining viable (Jurkat cells; cells and reagents pre-cooled to 4° C., 15 min reaction): greater than 85%
